# Data reported in paper PMC12656546, “Enterohepatic Recirculation-Mediated Reabsorption of Aristolochic Acid I: Revealed by Toxicokinetics and Metabolite Identification in Rats” (Toxics, 2025).
# Where “and” joins values, the source holds several entries; their conditions need not be identical. Equal values may be shown once. Read-outs that look alike come from different tables or passages of the source.
# How the values were obtained:
# [1] = Toxicokinetic study of AAI after single oral administration (plasma, UPLC-QQQ-MS/MS, NCA); assay type: in vivo, F344 rats; details: for tmax / AUC0→t / CL/F / Cmax / Vd / t1/2: individual pooled profiles (animal pairs), Table S4
# Experimental: For toxicokinetic study, forty-eight […] F344 rats (specific pathogen-free grade) were enrolled in the study, with equal numbers of males and females. All rats were purchased from Charles River Laboratory (Raleigh, NC, USA). All rats were confirmed to be healthy based on a series of physical health examinations. Rats were acclimated for 5 days at a temperature of 20–26 °C, humidity of 40–70% and a 12 h light/dark circle. The rats were randomly divided into four groups (n = 12 per group), with equal numbers of males and females in each group. The allocation was performed separately for each sex (female and male) based on body weight using a stratified randomization method. During the experiment, rats were fasted and had access to water ad libitum. To minimize confounding factors, treatments and measurements were randomized within each session. Cages from different groups were evenly distributed across racks in the same room to reduce bias from light and temperature. This study was approved by the Institutional Animal Care and Use Committee (IACUC) of the National Drug Safety Evaluation Center (Approval No. IACUC-2024-K011, 20 September 2024).
# During the experiment, each rat received a single oral administration via gastric gavage. Rats in the control group were administered with 0.5% sodium carboxymethyl cellulose (CMC-Na) suspension. For the treatment groups, rats were administered with gavage solution containing 10, 30 and 100 mg/kg of AAI. The gavage solution was prepared by uniformly dispersing the reference standard of AAI in the 0.5% CMC-Na solution. After oral administration, blood samples were collected from the postorbital vein plex of rats and immediately placed in EDTA tubes. To capture potential reabsorption which might occur long after AAI administration, 15 blood sampling time points were established for each dose group. A sparse sampling approach was employed to avoid excessive blood loss in each rat. For each dosage, 12 rats were subdivided into two groups. For the first group, blood samples were collected from 6 rats at 10, 30, 60, 90, 120, 240, 420, and 600 min after AAI administration; for the second group, blood samples were collected from these 6 rats at 12, 14, 16, 18, 20, 22, and 24 h after AAI administration. Therefore, the experimental design ensured that six biological replicates were obtained for each sampling time point, enabling robust toxicokinetic analysis.
# Rat plasma samples were prepared as follows: Blood was centrifuged at 13,200 rpm for 10 min. Then, 25 μL of retrieved plasma was transferred to 2 mL centrifuge tubes, followed by the addition of 75 μL of methanol/acetonitrile solution (v/v, 1∶1) containing indomethacin as internal standard (IS). After vortexing for 2 min and centrifugation for 10 min at 13,200 rpm, the supernatant was used as study samples for quantitative analysis. Quality control samples (QCs) and calibration standards were prepared by spiking blank plasma with different concentrations of AAI standard solution. The QCs and calibration standards were processed using identical procedures as the study samples.
# A method of ultra-performance liquid chromatography coupled with triple quadrupole tandem mass spectrometry (UPLC-QQQ-MS/MS) was developed to achieve the quantitation of AAI in rat plasma. The LC-MS/MS analysis was performed using an Acquity UPLC I-Class system coupled with an Xevo TQ XS spectrometer (Waters, Milford, MA, USA). An Acquity UPLC BEH C18 column (2.1 mm × 50 mm, 1.7 μm, Waters, Milford, MA, USA) was employed for chromatographic separation. The mobile phases consisted of water containing 5 mmol/L ammonium formate/0.1% formic acid (A) and acetonitrile (B). The gradient elution was set as follows: 1–4 min, 10–90% B; 4–5 min, 90% B; 5–5.01 min, 90–10% B; 5.01–7 min, 10% B. The flow rate was set at 0.4 mL/min. The column temperature was maintained at 40 °C. A sample volume of 2 μL was injected for analysis. […]
# Caco-2 monolayers = details: cited from earlier work
# [2] = nine months after a single administration of AAI, cited from earlier work
# [3] = medium-dose (30 mg/kg), 30 mg/kg
# [4] = oral dose from 30 mg/kg to 100 mg/kg (3.33-fold)
smiles,measurement,setting,value
"COc1cccc2c1cc([N+](=O)[O-])c1c(C(=O)O)cc3c(c12)OCO3 [AAI, Aristolochic acid I]",tmax,"[1]; high-dose (100 mg/kg), 100 mg/kg",1.00 h
same,sex-dependent difference in systemic exposure,"[1]; high-dose and medium-dose groups, female vs male rats",female rats exhibited higher systemic exposure compared to males
same,AAI plasma concentration,"[1]; low-dose (10 mg/kg oral), 18 h, individual rats M104,M105,M106,F104,F105,F106, below LLOQ set to zero",0.00 ng/mL
same,AAI plasma concentration,"[1]; low-dose (10 mg/kg oral), 20 h, individual rats M104,M105,M106,F104,F105,F106, below LLOQ set to zero",0.00 ng/mL
same,AAI plasma concentration,"[1]; low-dose (10 mg/kg oral), 22 h, individual rats M104,M105,M106,F104,F105,F106, below LLOQ set to zero",0.00 ng/mL
same,AAI plasma concentration,"[1]; low-dose (10 mg/kg oral), 24 h, individual rats M104,M105,M106,F104,F105,F106, below LLOQ set to zero",0.00 ng/mL
same,AUC0→t,"[1]; low-dose (10 mg/kg), 10 mg/kg",1.22157 µg·h/mL and 1.05594 µg·h/mL and 0.87613 µg·h/mL and 0.99096 µg·h/mL
same,CL/F,"[1]; low-dose (10 mg/kg), 10 mg/kg",1.53 L/h and 1.06 L/h and 1.82 L/h and 1.98 L/h and 1.38 L/h and 2.17 L/h
same,Cmax,"[1]; low-dose (10 mg/kg), 10 mg/kg",0.36173 µg/mL and 0.43618 µg/mL and 0.64011 µg/mL and 0.49676 µg/mL and 0.24755 µg/mL
same,Vd,"[1]; low-dose (10 mg/kg), 10 mg/kg",2.67 L and 1.53 L and 3.03 L and 4.74 L and 1.21 L and 6.96 L
same,t1/2,"[1]; low-dose (10 mg/kg), 10 mg/kg",1.00 h and 1.15 h and 1.66 h and 0.61 h and 1.21 h and 2.23 h
same,tmax,"[1]; low-dose (10 mg/kg), 10 mg/kg",0.17 h
same,AAI plasma concentration,"[1]; medium-dose (30 mg/kg oral), 0.167 h, individual rats M201,M202,M203,F201,F202,F203, 30 mg/kg",677.97 ng/mL and 891.85 ng/mL and 775.45 ng/mL and 694.87 ng/mL and 747.04 ng/mL and 424.53 ng/mL
same,AAI plasma concentration,"[1]; medium-dose (30 mg/kg oral), 0.5 h, individual rats M201,M202,M203,F201,F202,F203, 30 mg/kg",2114.14 ng/mL and 2496.11 ng/mL and 2604.27 ng/mL and 3133.29 ng/mL and 2919.69 ng/mL and 1424.98 ng/mL
same,AAI plasma concentration,"[1]; medium-dose (30 mg/kg oral), 1 h, individual rats M201,M202,M203,F201,F202,F203, 30 mg/kg",1312.37 ng/mL and 2360.84 ng/mL and 2630.67 ng/mL and 814.02 ng/mL and 1128.36 ng/mL and 777.08 ng/mL
same,AAI plasma concentration,"[1]; medium-dose (30 mg/kg oral), 1.5 h, individual rats M201,M202,M203,F201,F202,F203, 30 mg/kg",508.51 ng/mL and 594.78 ng/mL and 649.03 ng/mL and 685.24 ng/mL and 712.70 ng/mL
same,AAI plasma concentration,"[1]; medium-dose (30 mg/kg oral), 2 h, individual rats M201,M202,M203,F201,F202,F203, 30 mg/kg",634.01 ng/mL and 354.12 ng/mL and 602.07 ng/mL and 438.37 ng/mL and 724.22 ng/mL and 539.10 ng/mL
same,AAI plasma concentration,"[1]; medium-dose (30 mg/kg oral), 4 h, individual rats M201,M202,M203,F201,F202,F203, 30 mg/kg",90.61 ng/mL and 161.84 ng/mL and 196.08 ng/mL and 93.85 ng/mL and 264.87 ng/mL and 468.11 ng/mL
same,AAI plasma concentration,"[1]; medium-dose (30 mg/kg oral), 7 h, individual rats M201,M202,M203,F201,F202,F203, 30 mg/kg",72.74 ng/mL and 83.75 ng/mL and 104.71 ng/mL and 69.29 ng/mL and 131.52 ng/mL and 64.74 ng/mL
same,AAI plasma concentration,"[1]; medium-dose (30 mg/kg oral), 10 h, individual rats M201,M202,M203,F201,F202,F203, 30 mg/kg",26.96 ng/mL and 52.18 ng/mL and 50.62 ng/mL and 70.78 ng/mL and 76.59 ng/mL and 58.20 ng/mL
same,AAI plasma concentration,"[1]; medium-dose (30 mg/kg oral), 12 h, individual rats M204,M205,M206,F204,F205,F206, 30 mg/kg",1.92 ng/mL and 6.45 ng/mL and 1.24 ng/mL and 2.81 ng/mL and 3.93 ng/mL and 3.49 ng/mL
same,AAI plasma concentration,"[1]; medium-dose (30 mg/kg oral), 14 h, individual rats M204,M205,M206,F204,F205,F206, 30 mg/kg",2.74 ng/mL and 3.87 ng/mL and 2.17 ng/mL and 2.87 ng/mL
same,AAI plasma concentration,"[1]; medium-dose (30 mg/kg oral), 16 h, individual rats M204,M205,M206,F204,F205,F206, 30 mg/kg",0.61 ng/mL and 2.32 ng/mL and 0.38 ng/mL and 4.36 ng/mL and 5.23 ng/mL and 10.35 ng/mL
same,AAI plasma concentration,"[1]; medium-dose (30 mg/kg oral), 18 h, individual rats M204,M205,M206,F204,F205,F206, 30 mg/kg",0.83 ng/mL and 5.49 ng/mL and 0.29 ng/mL and 6.28 ng/mL and 4.31 ng/mL and 13.62 ng/mL
same,AAI plasma concentration,"[1]; medium-dose (30 mg/kg oral), 20 h, individual rats M204,M205,M206,F204,F205,F206, 30 mg/kg",0.91 ng/mL and 3.14 ng/mL and 0.30 ng/mL and 7.63 ng/mL and 13.88 ng/mL and 9.00 ng/mL
same,AAI plasma concentration,"[1]; medium-dose (30 mg/kg oral), 22 h, individual rats M204,M205,M206,F204,F205,F206, 30 mg/kg",0.40 ng/mL and 4.38 ng/mL and 0.15 ng/mL and 6.11 ng/mL and 48.38 ng/mL and 35.23 ng/mL
same,AAI plasma concentration,"[1]; medium-dose (30 mg/kg oral), 24 h, individual rats M204,M205,M206,F204,F205,F206, 30 mg/kg",0.23 ng/mL and 8.71 ng/mL
same,AUC0→t,[1]; [3],4.70309 µg·h/mL and 3.78395 µg·h/mL and 3.22859 µg·h/mL and 3.98395 µg·h/mL and 4.581 µg·h/mL
same,CL/F,[1]; [3],1.18 L/h and 0.80 L/h and 1.03 L/h and 1.79 L/h and 1.32 L/h and 1.20 L/h
same,Cmax,[1]; [3],2.91969 µg/mL and 1.42498 µg/mL and 2.11414 µg/mL and 2.49611 µg/mL and 2.63067 µg/mL and 3.13329 µg/mL
same,Vd,[1]; [3],5.23 L and 4.46 L and 4.94 L and 5.21 L (2×) and 2.97 L
same,t1/2,[1]; [3],3.85 h and 3.33 h and 2.02 h and 2.73 h and 1.71 h and 3.08 h
same,tmax,[1]; [3],1.00 h
same,fold increase in AUC0→t,[1]; [4],4.3 fold
same,fold increase in Cmax,[1]; [4],3.7 fold
same,passive diffusion ability across Caco-2 monolayers,Caco-2 monolayers,moderate passive diffusion ability
same,mice developing liver cancer,[2]; female mice,41.67%
same,mice developing liver cancer,[2]; male mice,78.57%
